Laboratory results: patent US20140057895A1, “INDAZOLE- AND PYRROLOPYRIDINE-DERIVATIVE AND PHARMACEUTICAL USE THEREOF” (priority 2011, published 2014)
Marks after values point to notes of the source that are not given here.

What was measured:
5-HT4 receptor = biological target: T1, 5-HT4 receptor (Cavia porcellus, UniProt O70528); test: Test Example 1: Serotonin 4 (5-HT4) receptor binding assay, [3H]-GR113808, guinea pig striatum membranes (Table 96); conditions: Guinea pig 5-HT4 receptor binding assay, [3H]-GR113808, striatum membranes; mean value of each group
T1 construct: striatum was isolated which was cryopreserved at −80° C. until use; from tissue; host or cells: guinea pig (Slc-Hartley) striatum membranes
T1 sequence (O70528 whole entry): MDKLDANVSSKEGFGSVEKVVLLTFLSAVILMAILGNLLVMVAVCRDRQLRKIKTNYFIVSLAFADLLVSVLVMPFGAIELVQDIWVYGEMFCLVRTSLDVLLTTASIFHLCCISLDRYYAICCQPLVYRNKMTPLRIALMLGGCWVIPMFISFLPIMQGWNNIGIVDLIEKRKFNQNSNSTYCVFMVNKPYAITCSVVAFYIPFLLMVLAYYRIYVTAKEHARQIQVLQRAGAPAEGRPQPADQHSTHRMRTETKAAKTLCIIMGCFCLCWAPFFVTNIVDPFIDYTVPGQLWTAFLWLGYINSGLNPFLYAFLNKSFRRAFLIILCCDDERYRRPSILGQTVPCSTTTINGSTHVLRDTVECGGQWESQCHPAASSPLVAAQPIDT

[1] = biological target: T2, Human 5-HT4 receptor (5-HT4b) (Homo sapiens, UniProt Q13639); test: Test Example 3: Human 5-HT4 receptor binding assay, membranes of CHO-K1 cells stably expressing 5-HT4b receptors (Table 99); conditions: mean value of each group
T2 construct: expressed in transfected cells; membrane preparation
T2 sequence (Q13639 whole entry): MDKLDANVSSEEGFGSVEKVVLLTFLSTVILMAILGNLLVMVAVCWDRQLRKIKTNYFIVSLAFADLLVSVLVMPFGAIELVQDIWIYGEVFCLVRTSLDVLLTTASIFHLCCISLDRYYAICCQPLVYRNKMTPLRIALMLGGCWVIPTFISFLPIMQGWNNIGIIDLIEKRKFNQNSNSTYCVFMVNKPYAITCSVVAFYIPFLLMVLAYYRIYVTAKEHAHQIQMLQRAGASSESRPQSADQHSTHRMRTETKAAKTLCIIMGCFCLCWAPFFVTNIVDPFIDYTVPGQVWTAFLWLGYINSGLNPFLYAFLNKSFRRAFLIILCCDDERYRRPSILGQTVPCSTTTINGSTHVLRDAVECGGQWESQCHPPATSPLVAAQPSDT
Procedure, shortened: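 Membranes from CHO-K1 cells stably expressing 5-HT4b incubated with 0.1 nM [3H]-GR113808 in 50 mM Hepes pH 7.4, 37 °C, 30 min; nonspecific binding with 30 μM serotonin. Bound label collected by filtration and scintillation counting; IC50 from inhibition of specific binding.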

[2] = tested on: scopolamine and MK801-induced cognitive impairment; test: Example 5: Y-maze test, scopolamine and MK801-induced deficits, co-administration with donepezil (Table 102); format: in vivo, ddY mouse
Description: Thus, scopolamine-induced cognitive impairment model, one of the AD-like model, has been used to predict pharmacodynamic signals of putative procognitive compounds, utilizing the acetylcholinesterase inhibitor donepezil for illustration (See, Citations 1 and 2). The present inventors investigated the effect of each compound on reversal of scopolamine-induced deficits in performance of Y-maze test in mice, and they also investigated adjunctive effect of compounds with donepezil on reversal of deficits induced by scopolamine and MK801 in mice.
Used animal: ddY mouse (SLC)
In the experiments, the mice were grouped in the same way using Stat Preclinica (Version 1.03295; Takumi Information Technology Inc.). The selected mice were divided into 5 to 7 groups of 7 to 12 mice using the “completely randomization design by the single variable” program (Analytical program version 1.0.7), with body weight on the testing day. After grouping, p values for Bartlett's test and ANOVA across all groups were greater than 0.2, indicating no significant difference in this parameter among the groups.
The required amount of each compound was weighed and put into a glass homogenizer. The required amount of 0.5% MC (methyl cellulose) solution was added, and each compound was suspended to give a 10 mg/kg dosing suspension.
The required amount of donepezil was weighed and put into a glass homogenizer. The required amount of 0.5% MC solution was added, and donepezil was suspended to give a suspension at concentration of 1 mg/mL (10 mg/kg dosing suspension).
The required amount of scopolamine and MK801 were weighed, and saline was added to it to give 0.3 mg/mL and 0.015 mg/mL solution, respectively.
90 Min before the test, the mice were orally administered each compound, donepezil, and vehicle (0.5% methyl cellulose, 10 mL/kg). After 60 min, memory impairment was induced by administering scopolamine (0.6 mg/kg, s.c.) with (co-administration) or without (mono-administration) MK801 (0.03 mg/kg, s.c.). The control group received saline (2 mL/kg, s.c.) rather than scopolamine and MK801.
The Y-maze used herein is a three-arm maze with equal angles between all arms. The mazefloor and walls were constructed from black acrylic resin. The mice were initially placed within one arm, and the sequence and number of arm entries were recorded manually for each mouse over an 8-min period.
Data were processed and analyzed with Microsoft® Office Excel 2003. The alternation behavior was defined as entries into all three arms on consecutive occasions. The percent alternation behavior in each animal was calculated using the following formula, and rounded to one decimal place.
Alternation behavior(%)=[actual alternation/(total arm entries−2)]×100
Restoration ratio of alternation behavior (%) in each animal was calculated using the following formula, and rounded to one decimal place.
Restoration ratio of alternation behavior in each animal (%)=y Alternation behavior in each animal (%)=x Mean of alternation behavior in vehicle-treated group (group No. 1) (%)=A Mean of alternation behavior in scopolamine-treated group (group No. 2) (%)=B
Data were expressed as the mean of the percent alternation behavior, the number of total arm entries and the restoration ratio of alternation behavior.
Values of Y-maze tests are expressed as mean of alternation behavior (n=7−12).
Alternation behaviors in the scopolamine-treated groups were compared to those in the control groups using Wilcoxon rank sum test (Stat preclinical; Version 1.03295; Takumi Information Technology Inc.) with a two-sided significance level of 0.05.
Restoration of alternation behavior was analyzed using Stat Preclinica. Alternation behaviors in the Donepezil (10 mg/kg, p.o.)-treated group were compared to those in the co-administrated groups of test compounds with donepezil (10 mg/kg, p.o.) using non-parametric Dunnett multiple comparison test (Analytical program version 1.0.2) with a two-sided significance level of 0.05.

[3] = compound 0.1 mg/kg, p.o. co-administered with Donepezil 10 mg/kg, p.o.

SMILES: CC(C)c1nn(-c2noc(C3CCN(C4CCN(C(=O)CO)CC4)CC3)n2)c2c(F)cccc12 [Example 242, 1-(4-{3-[7-fluoro-3-(propan-2-yl)-1H-indazol-1-yl]-1,2,4-oxadiazol-5-yl}-1,4′-bipiperidin-1′-yl)-2-hydroxyethanone]
- IC50 (5-HT4 receptor): < 20 nM
- IC50 [1]: < 20 nM
- Alternation behavior (%) ([2]; compound 0.1 mg/kg, p.o. alone): 51.2^# %
- Alternation behavior (%) [2, 3]: 58.6^$ %
- Alternation behavior (%) ([2]; compound 0.3 mg/kg, p.o. alone): 57.4^# %
- Alternation behavior (%) ([2]; compound 0.3 mg/kg, p.o. co-administered with Donepezil 10 mg/kg, p.o.): 62.5^$ %

SMILES: CC(=O)N1CCC(N2CCC(c3nc(-n4nc(C(C)C)c5cccc(F)c54)no3)CC2)CC1.Cl [Example 232, 1-(4-{3-[7-fluoro-3-(propan-2-yl)-1H-indazol-1-yl]-1,2,4-oxadiazol-5-yl}-1,4′-bipiperidin-1′-yl)ethanone hydrochloride]
- IC50 (5-HT4 receptor): < 20 nM
- IC50 [1]: < 20 nM
- Alternation behavior (%) ([2]; compound 0.03 mg/kg, p.o. alone): 46.7%
- Alternation behavior (%) ([2]; compound 0.03 mg/kg, p.o. co-administered with Donepezil 10 mg/kg, p.o.): 48.5%
- Alternation behavior (%) ([2]; compound 0.1 mg/kg, p.o. alone): 48.0^# %
- Alternation behavior (%) [2, 3]: 62.4^$ %
